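Five compound concentrations were applied to cells in 96-well plates for 48 hours; endpoints were derived by simple linear interpolation of the resulting dose-response curve. GI50 = concentration required for 50% inhibition of growth.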 Calls of active or inactive are those of the source. Cut-off read from the data, not from the text of the source: active = GI50 up to about 1.1 µM and inactive = higher.
Tests used:
Assay in all cases: NCI tumour cell line growth inhibition, 48 h
[1] = tested on: 786-0
[2] = tested on: A498
[3] = tested on: ACHN
[4] = tested on: COLO 205
[5] = tested on: DMS-273
[6] = tested on: HCT-116
[7] = tested on: OVCAR-3
[8] = tested on: OVCAR-4
[9] = tested on: OVCAR-8
[10] = tested on: SF-295
[11] = tested on: SK-MEL-2
[12] = tested on: SK-MEL-5
[13] = tested on: SN12C
[14] = tested on: SW-620
[15] = tested on: U-251
[16] = tested on: HOP-92
[17] = tested on: BT-549
[18] = tested on: MDA-MB-231
[19] = tested on: NCI/ADR-RES
[20] = tested on: PC-3

SMILES	GI50 [1]	GI50 [2]	GI50 [3]	GI50 [4]	GI50 [5]	GI50 [6]	GI50 [7]	GI50 [8]	GI50 [9]	GI50 [10]	GI50 [11]	GI50 [12]	GI50 [13]	GI50 [14]	GI50 [15]	GI50 [16]	GI50 [17]	GI50 [18]	GI50 [19]	GI50 [20]
COc1cc2cc(OC(C)=O)c3cc4c(cc3c2c(OC)c1OC)OCO4	> 100 µM (inactive)	> 100 µM (inactive)	> 100 µM (inactive)	> 100 µM (inactive)	> 100 µM (inactive)	> 100 µM (inactive)	> 100 µM (inactive)	> 100 µM (inactive)	> 100 µM (inactive)	> 100 µM (inactive)	> 100 µM (inactive)	> 100 µM (inactive)	> 100 µM (inactive)	> 100 µM (inactive)	> 100 µM (inactive)	–	–	–	–	–
CC1(C)C(c2ccccc2)C12CCC1(C2=O)C(c2ccccc2)C1(C)C (configuration not stated)	25.2 µM (inactive)	34.6 µM (inactive)	19.6 µM (inactive)	18.8 µM (inactive)	22.1 µM (inactive)	16.6 µM (inactive)	19.9 µM (inactive)	31.3 µM (inactive)	34.1 µM (inactive)	19.4 µM (inactive)	19.7 µM (inactive)	18.7 µM (inactive)	27.1 µM (inactive)	21.7 µM (inactive)	17.8 µM (inactive)	11.7 µM (inactive)	–	–	–	–
Cc1cc(Cl)ccc1NC(=O)CC1SC(N)=NC1=O (configuration not stated)	> 100 µM (inactive)	17.7 µM (inactive)	> 100 µM (inactive)	> 100 µM (inactive)	> 100 µM (inactive)	–	> 100 µM (inactive)	> 100 µM (inactive)	> 100 µM (inactive)	> 100 µM (inactive)	> 100 µM (inactive)	> 100 µM (inactive)	> 100 µM (inactive)	> 100 µM (inactive)	> 100 µM (inactive)	–	–	–	–	–
N=C(NC(=S)N1CCCCC1)N1CCCCC1	> 100 µM (inactive)	> 100 µM (inactive)	> 100 µM (inactive)	–	> 100 µM (inactive)	> 100 µM (inactive)	–	> 100 µM (inactive)	> 100 µM (inactive)	> 100 µM (inactive)	> 100 µM (inactive)	> 100 µM (inactive)	> 100 µM (inactive)	> 100 µM (inactive)	> 100 µM (inactive)	> 100 µM (inactive)	–	–	–	–
C(=C\c1ccc2ccccc2c1Nc1ccccc1)/c1ccccc1	17 µM (inactive)	18.3 µM (inactive)	20.6 µM (inactive)	> 71.3 µM (inactive)	32.7 µM (inactive)	17.8 µM (inactive)	22.4 µM (inactive)	8.15 µM (inactive)	22 µM (inactive)	41.9 µM (inactive)	> 60.5 µM (inactive)	78.3 µM (inactive)	33.6 µM (inactive)	60.3 µM (inactive)	25.9 µM (inactive)	18.2 µM (inactive)	–	–	–	–
O=C1[C@@H](c2ccc(Cl)cc2)[C@H]2CC=C[C@H]2N1O	> 100 µM (inactive)	–	–	> 100 µM (inactive)	> 100 µM (inactive)	–	> 100 µM (inactive)	–	> 100 µM (inactive)	> 100 µM (inactive)	> 100 µM (inactive)	> 100 µM (inactive)	> 100 µM (inactive)	> 100 µM (inactive)	–	–	–	–	–	–
CC1(C)O[C@H]2[C@H](O)C[C@](O)(CO)C[C@H]2O1	> 100 µM (inactive)	–	> 100 µM (inactive)	> 100 µM (inactive)	> 100 µM (inactive)	> 100 µM (inactive)	> 100 µM (inactive)	> 100 µM (inactive)	> 100 µM (inactive)	> 100 µM (inactive)	> 100 µM (inactive)	> 100 µM (inactive)	> 100 µM (inactive)	> 100 µM (inactive)	> 100 µM (inactive)	> 100 µM (inactive)	–	–	–	–
CC1=C2C(c3ccccc3)(c3ccccc3)C3C=CC2(C=N3)N(C(=O)NC2CCCCC2)C1=O (configuration not stated)	15.4 µM (inactive)	17.5 µM (inactive)	19.5 µM (inactive)	15.9 µM (inactive)	17.9 µM (inactive)	16 µM (inactive)	14.8 µM (inactive)	17.6 µM (inactive)	17.9 µM (inactive)	16.9 µM (inactive)	–	16.8 µM (inactive)	17.6 µM (inactive)	17.3 µM (inactive)	16.6 µM (inactive)	13.4 µM (inactive)	–	–	–	–
CCNC1=Nc2ccc(Cl)cc2C(c2ccccc2)=NN1	17.8 µM (inactive)	29.9 µM (inactive)	31.7 µM (inactive)	16.3 µM (inactive)	10.9 µM (inactive)	–	17.5 µM (inactive)	31.6 µM (inactive)	26.8 µM (inactive)	19.2 µM (inactive)	16.7 µM (inactive)	14.8 µM (inactive)	32.4 µM (inactive)	18 µM (inactive)	20.5 µM (inactive)	24.4 µM (inactive)	–	–	–	–
COC(=O)c1cc2c(nc1C)-c1ccccc1OS2(=O)=O	70 µM (inactive)	> 100 µM (inactive)	> 100 µM (inactive)	> 100 µM (inactive)	> 100 µM (inactive)	> 100 µM (inactive)	> 100 µM (inactive)	> 100 µM (inactive)	79.8 µM (inactive)	43.1 µM (inactive)	–	> 100 µM (inactive)	> 100 µM (inactive)	> 100 µM (inactive)	70.1 µM (inactive)	24.6 µM (inactive)	–	–	–	–
C/C(CCn1[nH]c(=O)ccc1=O)=N\Nc1ccc([N+](=O)[O-])cc1[N+](=O)[O-]	> 100 µM (inactive)	> 100 µM (inactive)	90.8 µM (inactive)	–	25.4 µM (inactive)	> 100 µM (inactive)	> 100 µM (inactive)	> 100 µM (inactive)	93.1 µM (inactive)	20.5 µM (inactive)	> 100 µM (inactive)	41.8 µM (inactive)	> 100 µM (inactive)	> 100 µM (inactive)	–	> 100 µM (inactive)	–	–	–	–
CC(C)(C)c1cc(-c2c3nc(c(-c4cc(C(C)(C)C)cc(C(C)(C)C)c4)c4ccc([nH]4)c(-c4cc(C(C)(C)C)cc(C(C)(C)C)c4)c4nc(c(-c5cc(C(C)(C)C)cc(C(C)(C)C)c5)c5ccc2[nH]5)C=C4)C=C3)cc(C(C)(C)C)c1	> 100 µM (inactive)	> 100 µM (inactive)	> 100 µM (inactive)	> 100 µM (inactive)	> 100 µM (inactive)	> 100 µM (inactive)	> 100 µM (inactive)	> 100 µM (inactive)	> 100 µM (inactive)	> 100 µM (inactive)	> 100 µM (inactive)	> 100 µM (inactive)	> 100 µM (inactive)	> 100 µM (inactive)	> 100 µM (inactive)	> 100 µM (inactive)	–	–	–	–
O=[N+]([O-])c1c(/C=N/c2ccccc2)oc(-c2ccc3c(c2)OCO3)c1-c1ccc2c(c1)OCO2	> 100 µM (inactive)	–	> 100 µM (inactive)	> 100 µM (inactive)	> 100 µM (inactive)	> 100 µM (inactive)	> 100 µM (inactive)	> 100 µM (inactive)	> 100 µM (inactive)	> 100 µM (inactive)	–	> 100 µM (inactive)	> 100 µM (inactive)	> 100 µM (inactive)	> 100 µM (inactive)	65.6 µM (inactive)	–	–	–	–
O=C(Nc1cccc(NC(=O)C(=O)C2CCC3=C(Sc4ccccc4N3)C2=O)n1)C(=O)C1CCC2=C(Sc3ccccc3N2)C1=O (configuration not stated)	91.8 µM (inactive)	> 100 µM (inactive)	76.6 µM (inactive)	37.2 µM (inactive)	–	40.6 µM (inactive)	> 100 µM (inactive)	18.9 µM (inactive)	43.8 µM (inactive)	42.6 µM (inactive)	> 100 µM (inactive)	41.2 µM (inactive)	74.3 µM (inactive)	40.7 µM (inactive)	45.1 µM (inactive)	> 100 µM (inactive)	79.6 µM (inactive)	> 100 µM (inactive)	40.8 µM (inactive)	27.4 µM (inactive)
c1ccc([B-]23Oc4ccccc4[NH+]2c2ccccc2O3)cc1 (configuration not stated)	> 100 µM (inactive)	> 100 µM (inactive)	75.7 µM (inactive)	49 µM (inactive)	54.6 µM (inactive)	> 100 µM (inactive)	56.6 µM (inactive)	> 100 µM (inactive)	57.7 µM (inactive)	> 100 µM (inactive)	–	> 100 µM (inactive)	> 100 µM (inactive)	33.2 µM (inactive)	> 100 µM (inactive)	> 100 µM (inactive)	–	–	–	–
C=C(C)[C@H](O)C(O)CC(C)[C@@H]1CCC23CC12CCC1[C@@]2(C)CCC(OC(C)=O)C(C)(C)C2CC(OC2OC(COC(C)=O)C(O)C(O)C2O)[C@]13C (some centres not stated)	7.4 µM (inactive)	7.98 µM (inactive)	6.61 µM (inactive)	6.61 µM (inactive)	5.66 µM (inactive)	3.8 µM (inactive)	5.83 µM (inactive)	7.71 µM (inactive)	6.47 µM (inactive)	6.59 µM (inactive)	8.83 µM (inactive)	–	6.75 µM (inactive)	6.14 µM (inactive)	4.74 µM (inactive)	5.37 µM (inactive)	–	–	–	–
COC(=O)c1ccc(O)c2nc3c(C=O)c(O)cc(O)c3nc12 [LOMOFUNGIN]	1.73 µM (inactive)	1.22 µM (inactive)	0.32 µM (active)	3.1 µM (inactive)	–	0.0977 µM (active)	4.65 µM (inactive)	2.76 µM (inactive)	0.0439 µM (active)	0.0441 µM (active)	2.9 µM (inactive)	0.953 µM (active)	0.499 µM (active)	0.641 µM (active)	0.025 µM (active)	1.2 µM (inactive)	0.614 µM (active)	3.17 µM (inactive)	0.0998 µM (active)	0.661 µM (active)

Reference: ChEMBL document CHEMBL1201862, “PubChem BioAssay data set” (2004)
